Among the test systems are HOP-92 NSCLC; SW-620 colon; MDA-N; PC-3 prostate; MDA-MB-435; IGROV1 ovarian; KM12 colon; NCI-H460 lung; TK-10 renal; NCI/ADR-RES ovarian; UO-31 renal; SNB-19 CNS; T-47D breast; U251 CNS; BT-549 breast; CAKI-1 renal; MOLT-4 leukemia; SF-539 CNS; NCI-H226 lung; SR leukemia.
What all share (test): DTP human tumour cell line panel, 48 h

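The compound was tested at five concentrations on cells cultured in 96-well plates, with a 48-hour exposure period. TGI is the concentration that stops growth completely.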

Regarding `Nc1nc(Cl)c(N)c(NCC2(CO)CCC(CCc3ccccc3)C2)n1` (stereo not given), the TGI with HOP-92 NSCLC is 49.2 µM; in the assay on SW-620 colon, 27.2 µM; with MDA-N it was 33.7 µM; with PC-3 prostate, 49.7 µM; in the assay on MDA-MB-435, 27 µM; with IGROV1 ovarian, more than 62.4 µM. In addition, the TGI in the assay on KM12 colon is 28.9 µM; in the assay with NCI-H460 lung, 32.2 µM; in the assay with TK-10 renal, more than 70.7 µM; in the assay with NCI/ADR-RES ovarian, more than 63.1 µM; with UO-31 renal it was 41.7 µM; in the assay on SNB-19 CNS, more than 94 µM. Besides, the TGI was more than 59 µM with T-47D breast; 29 µM with U251 CNS; 32.6 µM with BT-549 breast; 47.2 µM in the assay with CAKI-1 renal; 28 µM in the assay on MOLT-4 leukemia; 33.7 µM with SF-539 CNS. In addition, the TGI in the assay on NCI-H226 lung worked out at 42.5 µM.

For the molecule `Cc1ccc(C)n2c1nc1cc3ccccc3cc12`, the TGI in the assay with HOP-92 NSCLC, in the assay on SW-620 colon, in the assay with MDA-N, in the assay on SR leukemia, in the assay with PC-3 prostate and in the assay on MDA-MB-435 was more than 100 µM throughout. The TGI in the assay on IGROV1 ovarian was more than 100 µM; with KM12 colon, more than 100 µM; in the assay with TK-10 renal, more than 100 µM; in the assay on NCI/ADR-RES ovarian, more than 100 µM; in the assay on UO-31 renal, 94.4 µM; in the assay on SNB-19 CNS, more than 100 µM. In addition, the TGI with T-47D breast was more than 100 µM; in the assay on U251 CNS it was more than 100 µM; with BT-549 breast it was more than 100 µM; in the assay on MOLT-4 leukemia, 95.1 µM; with SF-539 CNS, more than 100 µM; with NCI-H226 lung, more than 100 µM.

With `CCOC(=O)CC(=O)Nc1cccc2sc3ncccc3c(=O)c12`, the TGI with SW-620 colon, in the assay with MDA-N, with SR leukemia, with PC-3 prostate, in the assay with MDA-MB-435 and in the assay on KM12 colon was more than 100 µM each time. Also, the TGI in the assay on NCI-H460 lung, in the assay on TK-10 renal, in the assay with NCI/ADR-RES ovarian, in the assay with UO-31 renal, in the assay on SNB-19 CNS and in the assay with T-47D breast was more than 100 µM each time. For the same molecule, the TGI in the assay with U251 CNS, in the assay on BT-549 breast, in the assay on CAKI-1 renal, in the assay on MOLT-4 leukemia, with SF-539 CNS and in the assay with NCI-H226 lung was more than 100 µM throughout.

Regarding `Cc1cc(S(=O)(=O)NC2=NCCCN2)c(S)cc1Cl`, the TGI in the assay with SW-620 colon was 37.8 µM; with MDA-N, more than 100 µM; in the assay with SR leukemia it was 56.1 µM; with PC-3 prostate, more than 100 µM; in the assay on MDA-MB-435 it was 54.7 µM; with IGROV1 ovarian it was more than 100 µM. Also, the TGI with KM12 colon was more than 100 µM; in the assay on NCI-H460 lung, more than 100 µM; in the assay on TK-10 renal, 74.7 µM; in the assay on NCI/ADR-RES ovarian it was more than 100 µM; with UO-31 renal it was more than 100 µM; with SNB-19 CNS it was more than 100 µM. Further, the TGI in the assay on T-47D breast is more than 100 µM; with U251 CNS, more than 100 µM; with BT-549 breast, 36.4 µM; with CAKI-1 renal, more than 100 µM; in the assay on SF-539 CNS it was more than 100 µM; in the assay on NCI-H226 lung, 88.2 µM.

Take `COc1ccc(-c2c(-c3ccccc3)c(C)nc3[nH]c(=S)[nH]c(=S)c23)cc1OC`: the TGI in the assay with HOP-92 NSCLC is more than 100 µM; with SW-620 colon, more than 100 µM; in the assay on MDA-N, more than 100 µM; with PC-3 prostate, more than 100 µM; in the assay on MDA-MB-435, 74.1 µM; with IGROV1 ovarian, more than 100 µM. Further, the TGI in the assay on KM12 colon was 42.7 µM; in the assay with NCI-H460 lung it was 98.3 µM; with TK-10 renal, more than 100 µM; in the assay with NCI/ADR-RES ovarian, more than 100 µM; with UO-31 renal it was 68.4 µM; with SNB-19 CNS, more than 100 µM. Besides, the TGI with T-47D breast was more than 100 µM; in the assay on U251 CNS, more than 100 µM; with BT-549 breast, more than 100 µM; in the assay with CAKI-1 renal, more than 100 µM; in the assay with MOLT-4 leukemia it was 63.6 µM; in the assay on SF-539 CNS, 50.8 µM. Besides, in the assay on NCI-H226 lung, the TGI is more than 100 µM.

On to `C=CCc1oc(C)nc1CCCC`, for which the TGI with HOP-92 NSCLC, with SW-620 colon, in the assay with MDA-N, in the assay on PC-3 prostate, with MDA-MB-435 and in the assay with IGROV1 ovarian was more than 100 µM each time. The TGI in the assay with KM12 colon, in the assay with NCI-H460 lung, in the assay with TK-10 renal, with NCI/ADR-RES ovarian, in the assay on UO-31 renal and in the assay with SNB-19 CNS was more than 100 µM in each case. In addition, the TGI in the assay on T-47D breast, in the assay on U251 CNS, in the assay on BT-549 breast, with CAKI-1 renal, in the assay with MOLT-4 leukemia and in the assay with SF-539 CNS was more than 100 µM each time. This molecule came in with a TGI in the assay on NCI-H226 lung of more than 100 µM.

As for `Cc1cc2c(nn1)CCc1c-2no[n+]1[O-]`, the TGI in the assay with SW-620 colon, with MDA-N, with SR leukemia, with PC-3 prostate, in the assay with MDA-MB-435 and in the assay on IGROV1 ovarian was more than 100 µM throughout. Moreover, the TGI with KM12 colon, in the assay with NCI-H460 lung, in the assay with TK-10 renal, in the assay on NCI/ADR-RES ovarian, in the assay on UO-31 renal and with SNB-19 CNS was more than 100 µM throughout. The total growth inhibition concentration (TGI) in the assay on T-47D breast, in the assay on U251 CNS, with BT-549 breast, in the assay with CAKI-1 renal, with MOLT-4 leukemia and with SF-539 CNS was more than 100 µM in each case. In the assay on NCI-H226 lung, the TGI was more than 100 µM.

The TGI is the concentration giving total growth inhibition. Read a high TGI as lower sensitivity of the cells.

(Values after PubChem BioAssay (NCI).)
